Results on 15 compounds are retold here after PMC10372819 (Acta Pharmaceutica Sinica. B, 2023).

The test system of series [1] is HIV-1 mutant L100I. The experiment in a line: microbe, parasite or virus in culture. Conditions: Human immunodeficiency virus 1, MT4, read-out: EC50 L100I.
The test system of series [2] is HIV-1 mutant K103N. In words: microbe, parasite or virus in culture. Conditions: Human immunodeficiency virus 1, MT4, read-out: EC50 K103N.
The test system of series [3] is HIV-1 mutant Y188L. The experiment in a line: microbe, parasite or virus in culture. The following applies: Human immunodeficiency virus 1, MT4, read-out: EC50 Y188L.
The target in series [4] is WT HIV-1 RT (Human immunodeficiency virus type 1 group M subtype B, UniProt P03366). The experiment in a line: biochemical.
Series [5] concerns WT HIV-1. The experiment in a line: microbe, parasite or virus in culture. The following applies: Human immunodeficiency virus 1, MT4, read-out: WT EC50.
Series [6] deals with HIV-1 mutant E138K. In words: microbe, parasite or virus in culture. The following applies: Human immunodeficiency virus 1, MT4, read-out: EC50 E138K.
In series [7] the test system is WT HIV-1. The following applies: Selectivity index CC50/EC50 (WT).
The nature of series [8]: Cytotoxicity in uninfected. Conditions: human, mock-infected (uninfected) MT-4 cells, CC50, uninfected MT-4 cells, MTT.

Molecules are shown by their SMILES.

Consider `Cc1cc(-c2ccc(C#N)cc2)cc(C)c1Oc1nc(Nc2ccc(C#N)cc2)ncc1CO` [9a, 4′-((2-((4-Cyanophenyl)amino)-5-(hydroxymethyl)pyrimidin-4-yl)oxy)-3′,5′-dimethyl-[1,1′-biphenyl]-4-carbonitrile], for which the EC50 stood at 6.3 ± 0.3 nM in series [1]; 3.2 ± 0.7 nM in series [2]; 33 ± 4 nM in series [3]; 2.5 ± 0.6 nM in series [5]; 6.5 ± 0.5 nM in series [6]. In series [4], this compound returned an IC50 of 35 ± 8 nM. The compound also returned an SI in series [7] of 6343. Further, in series [8], half-maximal cytotoxicity (CC50 at 5 days) was put at 15600 ± 4600 nM.

For `Cc1cc(-c2ccc(C#N)cc2)ccc1Oc1nc(Nc2ccc(C#N)cc2)ncc1CO` [9b, 4′-((2-((4-Cyanophenyl)amino)-5-(hydroxymethyl)pyrimidin-4-yl)oxy)-3′-methyl-[1,1′-biphenyl]-4-carbonitrile], the EC50 in series [1] came to 18.1 ± 3.4 nM; in series [2] it was 2.9 ± 0.1 nM; in series [3], 144 ± 25.9 nM; in series [5], 1.2 ± 0.1 nM; in series [6], 3.6 ± 0.7 nM. The IC50 in series [4] was found to be 27 ± 2 nM. For the same compound, the SI in series [7] is reported as >38,095. In series [8], this compound yielded a cytotoxic concentration (CC50) at 5 days above 46200 nM.

Consider `COc1cc(-c2ccc(C#N)cc2)ccc1Oc1nc(Nc2ccc(C#N)cc2)ncc1CO` [9c, 4′-((2-((4-Cyanophenyl)amino)-5-(hydroxymethyl)pyrimidin-4-yl)oxy)-3′-methoxy-[1,1′-biphenyl]-4-carbonitrile], for which the EC50 came to 20.5 ± 1.3 nM in series [1]; 6.5 ± 0.2 nM in series [2]; 137 ± 8.1 nM in series [3]; 1.7 ± 0.1 nM in series [5]; 19.4 ± 4.8 nM in series [6]. This compound yielded an IC50 in series [4] of 21 ± 8 nM. Further, the SI in series [7] was 149,540. For the same compound, it took 258000 ± 1200 nM to reach half-maximal cytotoxicity in series [8] (CC50 at 5 days).

As to `N#Cc1ccc(Nc2ncc(CO)c(Oc3ccc(-c4ccc(C#N)cc4)cc3F)n2)cc1` [9d, 4′-((2-((4-Cyanophenyl)amino)-5-(hydroxymethyl)pyrimidin-4-yl)oxy)-3′-fluoro-[1,1′-biphenyl]-4-carbonitrile], the EC50 in series [1] was determined as 117 ± 17.7 nM; in series [2], 14.4 ± 1.5 nM; in series [3], 41800 nM; in series [5] it was 3.9 ± 0.4 nM; in series [6] it was 34.9 ± 3.2 nM. The IC50 in series [4] amounted to 33 ± 2 nM. Moreover, in series [7], the SI is >11,594. In series [8], this compound yielded a CC50 at 5 days above 45800 nM.

Regarding `N#Cc1ccc(Nc2ncc(CO)c(Oc3ccc(-c4ccc(C#N)cc4)cc3Cl)n2)cc1` [9e, 3′-Chloro-4′-((2-((4-cyanophenyl)amino)-5-(hydroxymethyl)pyrimidin-4-yl)oxy)-[1,1′-biphenyl]-4-carbonitrile], the EC50 in series [1] was found to be 18.5 ± 3.6 nM; in series [2] it was 3.8 ± 0.2 nM; in series [3], 564 ± 97 nM; in series [5], 2.6 ± 0.5 nM; in series [6], 11 ± 2.1 nM. The compound further had an IC50 in series [4] of 29 ± 3 nM. The SI in series [7] is reported as >17,021. This compound gave a CC50 at 5 days in series [8] above 44100 nM.

`N#Cc1ccc(Nc2ncc(CO)c(Oc3ccc(-c4ccc(C#N)cc4)cc3C(F)(F)F)n2)cc1` [9f, 4′-((2-((4-Cyanophenyl)amino)-5-(hydroxymethyl)pyrimidin-4-yl)oxy)-3′-(trifluoromethyl)-[1,1′-biphenyl]-4-carbonitrile]: the EC50 in series [1] came to 11.1 ± 0.5 nM; in series [2] it was 3.2 ± 0.6 nM; in series [3] it was 85.3 ± 8.4 nM; in series [5], 1.8 ± 0.1 nM; in series [6], 7.9 ± 0.2 nM. For the same compound, the IC50 in series [4] came out at 21 ± 6 nM. The compound further gave an SI in series [7] of 7891. Moreover, half-maximal cytotoxicity in series [8] (CC50 at 5 days) was put at 14600 ± 3100 nM.

In the case of `Cc1cc(-c2ccncc2)cc(C)c1Oc1nc(Nc2ccc(C#N)cc2)ncc1CO` [9h, 4-((4-(2,6-Dimethyl-4-(pyridin-4-yl)phenoxy)-5-(hydroxymethyl)pyrimidin-2-yl)amino)benzonitrile], the EC50 in series [1] is 323 ± 44.5 nM; in series [2], 20.1 ± 3 nM; in series [3] it was 1580 ± 103 nM; in series [5], 7.1 ± 3 nM; in series [6], 38.9 ± 4.1 nM. Besides, the SI in series [7] is on record as 30,868. The same compound came in with a CC50 at 5 days in series [8] of 221000 ± 12500 nM.

For `COc1cc(-c2ccncc2)ccc1Oc1nc(Nc2ccc(C#N)cc2)ncc1CO` [9i, 4-((5-(Hydroxymethyl)-4-(2-methoxy-4-(pyridin-4-yl)phenoxy)pyrimidin-2-yl)amino)benzonitrile], the concentration giving a half-maximal response (EC50) came to 560 ± 137 nM in series [1]; 95.6 ± 17.6 nM in series [2]; 1750 ± 123 nM in series [3]; 18.2 ± 6.8 nM in series [5]; 217 ± 18.4 nM in series [6]. The SI in series [7] amounted to 1679. In series [8], the CC50 at 5 days stood at 30500 ± 3400 nM.

In the case of `N#Cc1ccc(Nc2ncc(CO)c(Oc3ccc(-c4ccncc4)cc3F)n2)cc1` [9j, 4-((4-(2-Fluoro-4-(pyridin-4-yl)phenoxy)-5-(hydroxymethyl)pyrimidin-2-yl)amino)benzonitrile], the EC50 in series [1] is 327 ± 44.9 nM; in series [2], 35.1 ± 8.1 nM; in series [3] it was above 48400 nM; in series [5], 4.7 ± 0.7 nM; in series [6], 42.4 ± 6.7 nM. Besides, the SI in series [7] is listed as >10,256. Further, in series [8], the CC50 at 5 days is above 48400 nM.

On to `N#Cc1ccc(Nc2ncc(CO)c(Oc3ccc(-c4ccncc4)cc3Cl)n2)cc1` [9k, 4-((4-(2-Chloro-4-(pyridin-4-yl)phenoxy)-5-(hydroxymethyl)pyrimidin-2-yl)amino)benzonitrile], for which the EC50 in series [1] came out at 327 ± 54.8 nM; in series [2] it was 35.4 ± 12.3 nM; in series [3], 43000 nM; in series [5] it was 4.9 ± 0.9 nM; in series [6], 45.9 ± 5.9 nM. In series [7], the SI is 53,539. The compound also yielded a CC50 at 5 days in series [8] of 264000 ± 10200 nM.

Take `N#Cc1ccc(Nc2ncc(CO)c(Oc3c(F)cc(-c4ccncc4)cc3F)n2)cc1` [9l, 4-((4-(2,6-Difluoro-4-(pyridin-4-yl)phenoxy)-5-(hydroxymethyl)pyrimidin-2-yl)amino)benzonitrile]: the EC50 in series [1] was found to be 22.2 ± 6.2 nM; in series [2], 3 ± 0.3 nM; in series [3], 720 ± 272 nM; in series [5], 0.9 nM; in series [6], 13.6 ± 1.2 nM. Besides, the SI in series [7] is 138,219. The same compound registered a CC50 at 5 days in series [8] of 128000 ± 5500 nM.

Turning to `N#Cc1ccc(Nc2ncc(CO)c(Oc3ccc(-c4cccnc4)cc3F)n2)cc1` [9m, 4-((4-(2-Fluoro-4-(pyridin-3-yl)phenoxy)-5-(hydroxymethyl)pyrimidin-2-yl)amino)benzonitrile], the EC50 in series [1] is 13700 ± 1140 nM; in series [2] it was 1690 ± 165 nM; in series [3], above 178000 nM; in series [5], 306 ± 43.6 nM; in series [6] it was 2490 ± 388 nM. This compound gave an SI in series [7] of 583. The same compound gave a CC50 at 5 days in series [8] of 178000 ± 32900 nM.

`O=C1Nc2ccc(Cl)cc2[C@@](C#CC2CC2)(C(F)(F)F)O1` [EFV, efavirenz, reference compound]: the EC50 in series [1] worked out at 440 ± 70 nM; in series [2], 102 ± 50 nM; in series [3], 290 ± 40 nM; in series [5], 7 nM; in series [6], 6 nM. Also, the CC50 at 5 days in series [8] is above 6300 nM.

Consider `Cc1cc(C#N)cc(C)c1Oc1nc(Nc2ccc(C#N)cc2)nc(N)c1Br` [ETR, etravirine, reference compound], for which the EC50 in series [1] amounted to 7 nM; in series [2], 3 nM; in series [3] it was 20 ± 10 nM; in series [5], 6 nM; in series [6], 7 ± 10 nM. In series [8], this compound returned a CC50 at 5 days above 4600 nM.

Consider `Cc1ccnc2c1NC(=O)c1cccnc1N2C1CC1` [NVP, nevirapine, reference compound], for which the EC50 in series [1] was 2100 ± 750 nM; in series [2], above 10100 nM; in series [3] it was above 15900 nM; in series [6], 2100 ± 30 nM. In series [8], this compound had a CC50 at 5 days above 15000 nM.

The EC50 is the concentration that produces a half-maximal response. As usually defined, the IC50 is the concentration needed to halve the response being measured. Lower therefore signals greater potency. For orientation: CC50 means the concentration at which the toxic effect on the cells reaches its halfway point. Higher therefore signals lower toxicity to the cells.
